Data on 17 compounds can be found in PubChem BioAssay AID1259408 (Genetic Toxicology Data Bank (GENE-TOX), 2018).

SMILES strings stand for the structures. Calls of active or inactive are those of the source. How the calls were made is not given here.

The subject of the data set is GENE-TOX genotoxicity assays, various organisms and cells. Briefly: GENE-TOX mutagenicity studies. Conditions: for call: Assay Type: In vivo carcinogenicity studies.
The mark [1] stands for this setting: Species/Cell Type: Bacillus subtilis (H17 vs M45T), Assay Type: Rec-assay, spot test, DNA effects (bacterial DNA repair), Assay Code: REXT, Evaluation Type: Evaluation A (Pre-1980).
[2] abbreviates: Species/Cell Type: Human lymphocytes, Assay Type: Sister-chromatid exchange (SCE) in vitro, Assay Code: SCL+, Evaluation Type: Evaluation B (Post-1980).
Where [3] appears, read: Species/Cell Type: Human, Assay Type: Sister-chromatid exchange (SCE) in vitro, Assay Code: SC1+, Evaluation Type: Evaluation B (Post-1980).
Where [4] appears, read: Species/Cell Type: Nonhuman, Assay Code: CCGT, Evaluation Type: Evaluation A (Pre-1980).
Setting [5] is: Species/Cell Type: Nonhuman, Assay Type: Sister-chromatid exchange (SCE) in vitro, Assay Code: SC2+D, Dose Response: With dose response, Evaluation Type: Evaluation A (Pre-1980).
Where [6] appears, read: Species/Cell Type: Salmonella typhimurium (one or more of the five standard strains: TA98, TA100, TA1535, TA1537, and TA1538), Assay Type: Histidine reverse gene mutation, Ames assay, Assay Code: SAL+*, Activation: With metabolic activation, Evaluation Type: Evaluation A (Pre-1980).
[7] abbreviates: Species/Cell Type: Salmonella typhimurium, Assay Type: Forward and reverse gene mutation, host-mediated assay, Assay Code: HMA+, Evaluation Type: Evaluation A (Pre-1980).
[8] abbreviates: Species/Cell Type: Syrian hamster embryo (SA7/SHE) cells, Assay Type: Cell transformation, viral enhanced, Assay Code: CT7+, Evaluation Type: Evaluation A (Pre-1980).
The mark [9] stands for this setting: Species/Cell Type: Chinese hamster lung (V79) cells, Assay Type: Forward gene mutation at the HPRT or ouabain locus, Assay Code: V79+, Evaluation Type: Evaluation A (Pre-1980).
The mark [10] stands for this setting: Species/Cell Type: Drosophila melanogaster, Assay Type: Sex-linked recessive lethal gene mutation, Assay Code: SRL+, Evaluation Type: Evaluation A (Pre-1980).
[11] abbreviates: Species/Cell Type: Mouse prostate cells, Assay Type: Cell transformation, Assay Code: CTM+, Evaluation Type: Evaluation A (Pre-1980).
Where [12] appears, read: Species/Cell Type: Salmonella typhimurium (one or more of the five standard strains: TA98, TA100, TA1535, TA1537, and TA1538), Assay Type: Histidine reverse gene mutation, Ames assay, Assay Code: SALT, Evaluation Type: Evaluation A (Pre-1980).

`CN(C)c1ccc2cc3ccc(N(C)C)cc3nc2c1`: the mutagenic call was “active; positive” (Species/Cell Type: Allium cepa, Assay Type: Chromosome aberrations, Assay Code: ALC+D, Dose Response: With dose response, Evaluation Type: Evaluation A (Pre-1980)); “no conclusion” under setting [1]; “active; positive” (Species/Cell Type: Chinese hamster ovary (CHO) cells, Assay Type: Forward gene mutation at the HPRT locus, Assay Code: CHO+, Evaluation Type: Evaluation B (Post-1980)); “no conclusion” (Species/Cell Type: Drosophila melanogaster, Assay Type: Sex-linked recessive lethal gene mutation, Assay Code: SRLT, Evaluation Type: Evaluation A (Pre-1980)); “active; positive” (Species/Cell Type: Escherichia coli polA (W3119 vs P3478), Assay Type: Rec-assay, DNA effects (bacterial DNA repair), Assay Code: RE1+, Evaluation Type: Evaluation A (Pre-1980)); “active; positive” under setting [2]. For the same compound, the mutagenic call was “active; positive” under setting [3]; “active; positive” (Species/Cell Type: Mammalian polychromatic erythrocytes, Assay Type: Micronucleus test, chromosome aberrations, Assay Code: MNT+, Evaluation Type: Evaluation B (Post-1980)); “active; positive” (Species/Cell Type: Mouse, Sex: Female, Assay Type: Spot test, gene mutation, Assay Code: MST+, Evaluation Type: Evaluation A (Pre-1980)); “active; positive” under setting [5]; “no conclusion” (Species/Cell Type: Saccharomyces cerevisiae, Assay Type: Forward gene mutation, Assay Code: YEFT, Evaluation Type: Evaluation A (Pre-1980)); “active; positive” (Species/Cell Type: Saccharomyces cerevisiae, Assay Type: Mitotic recombination or gene conversion, Assay Code: YEC+, Evaluation Type: Evaluation A (Pre-1980)). Moreover, the mutagenic call reads like this: (Species/Cell Type: Saccharomyces cerevisiae, Assay Type: Mitotic recombination or gene conversion, Assay Code: YEH+, Evaluation Type: Evaluation A (Pre-1980)) “active; positive”; under setting [6], “active; positive”; under setting [7], “active; positive”; under setting [8], “active; positive”; (Species/Cell Type: Syrian hamster embryo (SHE) cells, Assay Type: Cell transformation, clonal assay, Assay Code: CTCT, Evaluation Type: Evaluation A (Pre-1980)) “no conclusion”. The call under setting [4] was “no conclusion”.

Consider `CN(C)c1ccc(N=Nc2ccc3nc4ccc(N)cc4[n+](-c4ccccc4)c3c2)cc1`, for which the mutagenic call (Species/Cell Type: Bacillus subtilis (H17 vs M45), Assay Type: Rec-assay, spot test, DNA effects (bacterial DNA repair), Assay Code: REW-, Evaluation Type: Evaluation A (Pre-1980)) was “inactive; negative”.

As for `O=O`, the mutagenic call under setting [9] was “active; positive”.

For `Cc1ccc2cc3c(c4c2c1CC4)C1OC1c1ccccc1-3` (stereo unspecified), the mutagenic call was “active; positive” under setting [9]; “active; positive” under setting [10]; “active; positive” under setting [11]; “active; positive” (Species/Cell Type: Syrian hamster embryo (SHE) cells, Assay Type: Cell transformation, clonal assay, Assay Code: CTC+, Evaluation Type: Evaluation A (Pre-1980)). In addition, the call under setting [4] is reported as “no conclusion”.

For `CC1CCOS(=O)(=O)O1` (stereo unspecified), the mutagenic call runs as follows: (Species/Cell Type: Salmonella typhimurium (one or more of the five standard strains: TA98, TA100, TA1535, TA1537, and TA1538), Assay Type: Histidine reverse gene mutation, Ames assay, Assay Code: SAL+, Evaluation Type: Evaluation A (Pre-1980)) “active; positive”; under setting [7], “active; positive”.

As to `Cc1ccc2cc3c(c4c2c1CC4)[C@H](O)[C@@H](O)c1ccccc1-3`, the mutagenic call is, setting by setting: (Species/Cell Type: Chinese hamster lung (V79) cells, Assay Type: Forward gene mutation at the HPRT or ouabain locus, Assay Code: V79-, Evaluation Type: Evaluation A (Pre-1980)) “inactive; negative”; (Species/Cell Type: Mouse prostate cells, Assay Type: Cell transformation, Assay Code: CTM-, Evaluation Type: Evaluation A (Pre-1980)) “inactive; negative”; under setting [6], “active; positive”. Also, under setting [4], the call is “no conclusion”.

Regarding `OC[C@H]1O[C@@](CO)(O[C@H]2O[C@H](CO)[C@@H](O)[C@H](O)[C@H]2O)[C@@H](O)[C@@H]1O`, the mutagenic call is, setting by setting: (Species/Cell Type: Mammalian polychromatic erythrocytes, Assay Type: Micronucleus test, chromosome aberrations, Assay Code: MNTT, Evaluation Type: Evaluation A (Pre-1980)) “no conclusion”; (Species/Cell Type: Nonhuman, Assay Type: Sister-chromatid exchange (SCE) in vitro, Assay Code: SC2T, Evaluation Type: Evaluation B (Post-1980)) “no conclusion”.

As for `C[C@@]1(CO)[C@H](O)CC[C@@]2(C)[C@H]1CC[C@H]1C[C@@H]3C[C@@]12CC[C@]3(O)CO`, the mutagenic call under setting [2] is “active; positive”; the mutagenic call under setting [3] was “active; positive”; the mutagenic call (Species/Cell Type: Nonhuman, Assay Type: Sister-chromatid exchange (SCE) in vitro, Assay Code: SC2+D, Dose Response: With dose response, Evaluation Type: Evaluation B (Post-1980)) was “active; positive”.

For `Cc1c2c(cc3c1ccc1ccccc13)C=C[C@@H](O)[C@@H]2O`, the mutagenic call was “active; positive” under setting [9], “active; positive” under setting [11] and “active; positive” under setting [5]. Further, the call under setting [4] was “no conclusion”.

In the case of `Cc1cccc(C)c1O`, under “Species/Cell Type: Human lymphocytes, Assay Type: Sister-chromatid exchange (SCE) in vitro, Assay Code: SCLT, Evaluation Type: Evaluation B (Post-1980)”, the mutagenic call was “no conclusion”.

Turning to `CC(=O)ON(C(C)=O)c1ccc(/C=C\c2ccccc2)cc1`, under “Species/Cell Type: Human diploid fibroblasts, Assay Type: Unscheduled DNA synthesis (UDS) in vitro, DNA effects, Assay Code: UDH+, Evaluation Type: Evaluation A (Pre-1980)”, the mutagenic call was “active; positive”. For the same compound, the call (Species/Cell Type: Nonhuman, Assay Code: CCG+L, Evaluation Type: Evaluation A (Pre-1980)) is “active; positive”.

In the case of `c1ccc2c(c1)ccc1cc3c(ccc4ccccc43)cc12`, the mutagenic call (Species/Cell Type: Chinese hamster lung (V79) cells, Assay Type: Forward gene mutation at the HPRT or ouabain locus, Assay Code: V79+*, Activation: With metabolic activation, Evaluation Type: Evaluation A (Pre-1980)) is “active; positive”; the mutagenic call under setting [10] is “active; positive”; the mutagenic call (Species/Cell Type: Fischer rat embryo (RLV/1706) cells, Assay Type: Cell transformation, viral enhanced, Assay Code: CTR+, Evaluation Type: Evaluation A (Pre-1980)) is “active; positive”; the mutagenic call (Species/Cell Type: Fischer rat embryo (SA7/RE) cells, Assay Type: Cell transformation, viral enhanced, Assay Code: CTA+, Evaluation Type: Evaluation A (Pre-1980)) was “active; positive”; the mutagenic call (Species/Cell Type: Human diploid fibroblasts, Assay Type: Unscheduled DNA synthesis (UDS) in vitro, DNA effects, Assay Code: UDHT, Evaluation Type: Evaluation A (Pre-1980)) is reported as “no conclusion”; the mutagenic call (Species/Cell Type: Mouse (BALB/c-3T3) cells, Assay Type: Cell transformation, Assay Code: CTB+, Evaluation Type: Evaluation A (Pre-1980)) was “active; positive”. Further, the mutagenic call is, setting by setting: (Species/Cell Type: Mouse (C3H/10T1/2) cells, Assay Type: Cell transformation, Assay Code: CTH+, Evaluation Type: Evaluation A (Pre-1980)) “active; positive”; (Species/Cell Type: Mouse embryo (AKR/ME) cells, Assay Type: Cell transformation, Assay Code: CTK+, Evaluation Type: Evaluation A (Pre-1980)) “active; positive”; (Species/Cell Type: Mouse prostate cells, Assay Type: Cell transformation, Assay Code: CTMT, Evaluation Type: Evaluation A (Pre-1980)) “no conclusion”; (Species/Cell Type: Neurospora crassa, Assay Type: Forward gene mutation, Assay Code: NEF+, Evaluation Type: Evaluation A (Pre-1980)) “active; positive”; (Species/Cell Type: Nonhuman, Assay Type: Sister-chromatid exchange (SCE) in vivo, Assay Code: SC3T, Evaluation Type: Evaluation A (Pre-1980)) “no conclusion”; under setting [6], “active; positive”. For the same compound, the mutagenic call under setting [8] is “active; positive”; the mutagenic call (Species/Cell Type: Syrian hamster embryo (SHE) cells, Assay Type: Cell transformation, clonal assay, Assay Code: CTC+D, Dose Response: With dose response, Evaluation Type: Evaluation A (Pre-1980)) was “active; positive”; the mutagenic call (Species/Cell Type: Syrian hamster embryo (SHE) cells, Assay Type: Cell transformation, focus assay, Assay Code: CTF+, Evaluation Type: Evaluation A (Pre-1980)) was “active; positive”. Further, the call (Species/Cell Type: Nonhuman, Assay Code: CCG+, Evaluation Type: Evaluation A (Pre-1980)) is “active; positive”.

In the case of `O=CCC=O`, the mutagenic call under setting [12] was “no conclusion”.

Consider `CCN(CC)C(=O)OC1(SC)C(=O)c2ccccc2C1=O`, for which the mutagenic call under setting [7] was “active; positive”.

Take `CC(=O)OCN(Cc1ccccc1)N=O`: the mutagenic call under setting [12] is “no conclusion”.

On to `[Cl][Hg]`, for which the mutagenic call by setting is: (Species/Cell Type: Bacillus subtilis (H17 vs M45), Assay Type: Rec-assay, spot test, DNA effects (bacterial DNA repair), Assay Code: REW+, Evaluation Type: Evaluation A (Pre-1980)) “active; positive”; under setting [1], “no conclusion”; (Species/Cell Type: Nonhuman, Assay Type: Sister-chromatid exchange (SCE) in vitro, Assay Code: SC2+, Evaluation Type: Evaluation B (Post-1980)) “active; positive”.

In the case of `Cc1cc2c(ccc3ccccc32)c2c1C(=O)CC2`, under setting [12], the mutagenic call is recorded as “no conclusion”.
